# Measured values taken from patent US8192962B2, “Processes for detecting toxic substances” (Daikin Industries, Ltd., priority 2001, dated 2012).
# Test system: Metabolism protein genes
# Assay: DNA chip mRNA expression in yeast, metabolism protein genes (Table 7)
# Type: cell-based, Saccharomyces cerevisiae S288C
# Protocol: Yeast (Saccharomyces cerevisiae S288C (α SUC2mal mel gap2 CUP1)) were incubated at 25° C. on YPD medium (yeast extract 1%, polypepton 2%, glucose 2%). One of toxic chemical substances was added to the cells at logarithmic growth phase, and the cells were further incubated for two hours. Cells were cultured without any chemical substance in the same condition, and were used as control. Concentrations of the chemical substances were defined to inhibit the growth of the yeast but not lead to death.
# After completion of the incubation, the culture was centrifuged to collect the cells. To the cells, sodium acetate buffer (50 mM sodium acetate, 10 mM EDTA, 1% SDS) was added, and the mixture was shaken at 65° C. for five minutes, followed by returning to room temperature, and obtaining the supernatant, of which the procedures were repeated two times. To the supernatant, ½ amount of a solution of phenol/chloroform was added, and the mixture was centrifuged to give a supernatant, which was added with an equal amount of chloroform, and the mixture was centrifuged to give a supernatant. To the supernatant, an equal amount of isopropanol containing 0.3 M sodium acetate was added, and the mixture was allowed to stand at room temperature for 30 minutes, after which the mixture was centrifuged to give a sediment of the whole RNAs. Seventy % ethanol was added to the sediment, and the mixture was again centrifuged to give a sediment, which was then dried and dissolved in water. mRNA was isolated from the whole RNAs as followings. In view of the fact that a poly A chain is attached to the 3′ terminus of mRNA, a polynucleotide having a poly T structure which was immobilized on the surface of latex beads was used to trap the mRNA, and then the mRNA was washed and eluted with spine column (Oligotex-dT30<Super>mRNA Purification Kit, Takara). Reverse transcription of the mRNA was conducted with a reverse transcriptase (Super Script II Reverse Transcriptase; catalogue No. 18064-014, GibcoBRL) using fluorescence-labeled nucleotides to give cDNAs that were introduced with Cy3-dUTP or Cy5-dUTP during the reverse transcription.
# The labeled cDNAs were dissolved in TE buffer (10mM Tris-HCl/1 mM EDTA, pH8.0), and the solution was dropped on the DNA chip containing the whole genes of yeast (DNA Chip Research Inc. Japan) so that the cDNAs were hybridized on the DNA chip at 65° C. for over 12 hours. The fluoresces intensity of the DNA chip was read with a scanner, and the ratio relative to the fluorescence intensity resulting from the absence of chemical substance was estimated as the following, which is shown in Tables 1 to 9: […]
smiles,measurement,setting,value
"O=[N+]([O-])c1cc[n+]([O-])c2ccccc12 [(5), 4-nitroquinolin-N-oxide]",The level of expressed mRNA in the presence of chemical substance/The level of expressed mRNA in the absence of chemical substance,yeast gene YAL012W,0.6
same,The level of expressed mRNA in the presence of chemical substance/The level of expressed mRNA in the absence of chemical substance,yeast gene YAL038W,1.4
same,The level of expressed mRNA in the presence of chemical substance/The level of expressed mRNA in the absence of chemical substance,yeast gene YAR071W,1.6
same,level of expressed mRNA in the presence/in the absence of chemical substance,yeast gene YBR003W,0.7
same,level of expressed mRNA in the presence/in the absence of chemical substance,yeast gene YBR011C,0.9
same,level of expressed mRNA in the presence/in the absence of chemical substance,yeast gene YBR020W,1.0
same,The level of expressed mRNA in the presence of chemical substance/The level of expressed mRNA in the absence of chemical substance,yeast gene YBR023C,0.8
same,The level of expressed mRNA in the presence of chemical substance/The level of expressed mRNA in the absence of chemical substance,yeast gene YBR029C,1.4
same,The level of expressed mRNA in the presence of chemical substance/The level of expressed mRNA in the absence of chemical substance,yeast gene YBR183W,0.9
same,The level of expressed mRNA in the presence of chemical substance/The level of expressed mRNA in the absence of chemical substance,yeast gene YBR222C,0.7
same,The level of expressed mRNA in the presence of chemical substance/The level of expressed mRNA in the absence of chemical substance,yeast gene YBR256C,1.6
same,The level of expressed mRNA in the presence of chemical substance/The level of expressed mRNA in the absence of chemical substance,yeast gene YBR299W,1.6
same,The level of expressed mRNA in the presence of chemical substance/The level of expressed mRNA in the absence of chemical substance,yeast gene YCL009C,0.7
same,The level of expressed mRNA in the presence of chemical substance/The level of expressed mRNA in the absence of chemical substance,yeast gene YCL064C,1.4
same,level of expressed mRNA in the presence/in the absence of chemical substance,yeast gene YCR010C,1.7
same,level of expressed mRNA in the presence/in the absence of chemical substance,yeast gene YCR034W,0.9
same,The level of expressed mRNA in the presence of chemical substance/The level of expressed mRNA in the absence of chemical substance,yeast gene YCR048W,0.9
same,The level of expressed mRNA in the presence of chemical substance/The level of expressed mRNA in the absence of chemical substance,yeast gene YCR098C,1.4
same,The level of expressed mRNA in the presence of chemical substance/The level of expressed mRNA in the absence of chemical substance,yeast gene YDR019C,0.9
same,level of expressed mRNA in the presence/in the absence of chemical substance,yeast gene YDR050C,0.9
same,level of expressed mRNA in the presence/in the absence of chemical substance,yeast gene YDR073W,1.2
same,level of expressed mRNA in the presence/in the absence of chemical substance,yeast gene YDR123C,1.6
same,level of expressed mRNA in the presence/in the absence of chemical substance,yeast gene YDR178W,0.9
same,level of expressed mRNA in the presence/in the absence of chemical substance,yeast gene YDR277C,0.8
same,level of expressed mRNA in the presence/in the absence of chemical substance,yeast gene YDR284C,0.8
same,level of expressed mRNA in the presence/in the absence of chemical substance,yeast gene YDR345C,1.3
same,The level of expressed mRNA in the presence of chemical substance/The level of expressed mRNA in the absence of chemical substance,yeast gene YDR380W,1.1
same,level of expressed mRNA in the presence/in the absence of chemical substance,yeast gene YDR400W,1.0
same,level of expressed mRNA in the presence/in the absence of chemical substance,yeast gene YDR408C,0.9
same,level of expressed mRNA in the presence/in the absence of chemical substance,yeast gene YDR483W,0.7
same,The level of expressed mRNA in the presence of chemical substance/The level of expressed mRNA in the absence of chemical substance,yeast gene YDR497C,0.7
same,The level of expressed mRNA in the presence of chemical substance/The level of expressed mRNA in the absence of chemical substance,yeast gene YDR502C,1.5
same,The level of expressed mRNA in the presence of chemical substance/The level of expressed mRNA in the absence of chemical substance,yeast gene YDR516C,1.3
same,level of expressed mRNA in the presence/in the absence of chemical substance,yeast gene YEL063C,1.2
same,level of expressed mRNA in the presence/in the absence of chemical substance,yeast gene YER015W,1.3
same,The level of expressed mRNA in the presence of chemical substance/The level of expressed mRNA in the absence of chemical substance,yeast gene YER026C,1.2
same,The level of expressed mRNA in the presence of chemical substance/The level of expressed mRNA in the absence of chemical substance,yeast gene YER053C,0.6
same,The level of expressed mRNA in the presence of chemical substance/The level of expressed mRNA in the absence of chemical substance,yeast gene YER069W,1.5
same,level of expressed mRNA in the presence/in the absence of chemical substance,yeast gene YER081W,1.1
same,The level of expressed mRNA in the presence of chemical substance/The level of expressed mRNA in the absence of chemical substance,yeast gene YER096W,1.3
same,level of expressed mRNA in the presence/in the absence of chemical substance,yeast gene YER120W,0.8
same,The level of expressed mRNA in the presence of chemical substance/The level of expressed mRNA in the absence of chemical substance,yeast gene YER178W,0.7
same,level of expressed mRNA in the presence/in the absence of chemical substance,yeast gene YFL011W,1.3
same,The level of expressed mRNA in the presence of chemical substance/The level of expressed mRNA in the absence of chemical substance,yeast gene YFL014W,1.0
same,The level of expressed mRNA in the presence of chemical substance/The level of expressed mRNA in the absence of chemical substance,yeast gene YFL030W,1.1
same,The level of expressed mRNA in the presence of chemical substance/The level of expressed mRNA in the absence of chemical substance,yeast gene YFL031W,1.0
same,The level of expressed mRNA in the presence of chemical substance/The level of expressed mRNA in the absence of chemical substance,yeast gene YFL056C,0.9
same,The level of expressed mRNA in the presence of chemical substance/The level of expressed mRNA in the absence of chemical substance,yeast gene YFL057C,0.9
same,The level of expressed mRNA in the presence of chemical substance/The level of expressed mRNA in the absence of chemical substance,yeast gene YFR047C,1.2
same,level of expressed mRNA in the presence/in the absence of chemical substance,yeast gene YGL012W,1.5
same,The level of expressed mRNA in the presence of chemical substance/The level of expressed mRNA in the absence of chemical substance,yeast gene YGL022W,1.0
same,level of expressed mRNA in the presence/in the absence of chemical substance,yeast gene YGL115W,1.2
same,The level of expressed mRNA in the presence of chemical substance/The level of expressed mRNA in the absence of chemical substance,yeast gene YGL126W,1.1
same,level of expressed mRNA in the presence/in the absence of chemical substance,yeast gene YGL205W,1.1
same,The level of expressed mRNA in the presence of chemical substance/The level of expressed mRNA in the absence of chemical substance,yeast gene YGL209W,0.7
same,The level of expressed mRNA in the presence of chemical substance/The level of expressed mRNA in the absence of chemical substance,yeast gene YGL248W,1.3
same,The level of expressed mRNA in the presence of chemical substance/The level of expressed mRNA in the absence of chemical substance,yeast gene YGR037C,1.0
same,The level of expressed mRNA in the presence of chemical substance/The level of expressed mRNA in the absence of chemical substance,yeast gene YGR055W,1.3
same,level of expressed mRNA in the presence/in the absence of chemical substance,yeast gene YGR096W,1.2
same,level of expressed mRNA in the presence/in the absence of chemical substance,yeast gene YGR191W,0.8
same,The level of expressed mRNA in the presence of chemical substance/The level of expressed mRNA in the absence of chemical substance,yeast gene YGR194C,0.8
same,level of expressed mRNA in the presence/in the absence of chemical substance,yeast gene YGR204W,0.6
same,The level of expressed mRNA in the presence of chemical substance/The level of expressed mRNA in the absence of chemical substance,yeast gene YGR256W,0.9
same,The level of expressed mRNA in the presence of chemical substance/The level of expressed mRNA in the absence of chemical substance,yeast gene YGR282C,1.0
same,level of expressed mRNA in the presence/in the absence of chemical substance,yeast gene YGR288W,0.8
same,level of expressed mRNA in the presence/in the absence of chemical substance,yeast gene YHR025W,0.9
same,The level of expressed mRNA in the presence of chemical substance/The level of expressed mRNA in the absence of chemical substance,yeast gene YHR111W,1.5
same,The level of expressed mRNA in the presence of chemical substance/The level of expressed mRNA in the absence of chemical substance,yeast gene YHR137W,1.0
same,The level of expressed mRNA in the presence of chemical substance/The level of expressed mRNA in the absence of chemical substance,yeast gene YHR174W,1.3
same,The level of expressed mRNA in the presence of chemical substance/The level of expressed mRNA in the absence of chemical substance,yeast gene YHR176W,1.0
same,level of expressed mRNA in the presence/in the absence of chemical substance,yeast gene YHR210C,1.8
same,level of expressed mRNA in the presence/in the absence of chemical substance,yeast gene YIL006W,0.8
same,The level of expressed mRNA in the presence of chemical substance/The level of expressed mRNA in the absence of chemical substance,yeast gene YIL045W,1.3
same,The level of expressed mRNA in the presence of chemical substance/The level of expressed mRNA in the absence of chemical substance,yeast gene YIL107C,0.8
same,The level of expressed mRNA in the presence of chemical substance/The level of expressed mRNA in the absence of chemical substance,yeast gene YIL154C,0.9
same,The level of expressed mRNA in the presence of chemical substance/The level of expressed mRNA in the absence of chemical substance,yeast gene YIL155C,1.3
same,The level of expressed mRNA in the presence of chemical substance/The level of expressed mRNA in the absence of chemical substance,yeast gene YIL167W,1.0
same,The level of expressed mRNA in the presence of chemical substance/The level of expressed mRNA in the absence of chemical substance,yeast gene YIR031C,1.6
same,The level of expressed mRNA in the presence of chemical substance/The level of expressed mRNA in the absence of chemical substance,yeast gene YIR034C,1.1
same,The level of expressed mRNA in the presence of chemical substance/The level of expressed mRNA in the absence of chemical substance,yeast gene YIR036C,0.9
same,The level of expressed mRNA in the presence of chemical substance/The level of expressed mRNA in the absence of chemical substance,yeast gene YJL031C,1.7
same,The level of expressed mRNA in the presence of chemical substance/The level of expressed mRNA in the absence of chemical substance,yeast gene YJL068C,0.7
same,The level of expressed mRNA in the presence of chemical substance/The level of expressed mRNA in the absence of chemical substance,yeast gene YJL088W,0.9
same,The level of expressed mRNA in the presence of chemical substance/The level of expressed mRNA in the absence of chemical substance,yeast gene YJL099W,1.9
same,level of expressed mRNA in the presence/in the absence of chemical substance,yeast gene YJL121C,1.0
same,level of expressed mRNA in the presence/in the absence of chemical substance,yeast gene YJL167W,0.7
same,The level of expressed mRNA in the presence of chemical substance/The level of expressed mRNA in the absence of chemical substance,yeast gene YJL172W,0.9
same,level of expressed mRNA in the presence/in the absence of chemical substance,yeast gene YJL216C,0.8
same,The level of expressed mRNA in the presence of chemical substance/The level of expressed mRNA in the absence of chemical substance,yeast gene YJL219W,1.2
same,level of expressed mRNA in the presence/in the absence of chemical substance,yeast gene YJR077C,0.9
same,The level of expressed mRNA in the presence of chemical substance/The level of expressed mRNA in the absence of chemical substance,yeast gene YJR137C,0.6
same,level of expressed mRNA in the presence/in the absence of chemical substance,yeast gene YJR143C,1.6
